Measured values published in ChEMBL document CHEMBL3046605, “Biocontrol of rice blast by the phenaminomethylacetic acid producer of Bacillus methylotrophicus strain BC79” (2013).

How the values were obtained:
Type in all cases: functional
[1] = test system: Pyricularia oryzae; assay: Antifungal activity against Magnaporthe oryzae in rice seedlings assessed as rice blast disease incidence at 15% with formulation dose of 200 g/667 m'2 applied using knapsack sprayer measured under field trials (reference value: 43.7 +/-5.4%)
[2] = test system: Pyricularia oryzae; assay: Antifungal activity against Magnaporthe oryzae in rice seedlings assessed as rice blast disease control efficacy at 15% with formulation dose of 200 g/667 m'2 applied using knapsack sprayer measured under field trials
[3] = test system: Pyricularia oryzae; assay: Antifungal activity against Magnaporthe oryzae in rice seedlings assessed as rice yield at 15% with formulation dose of 200 g/667 m'2 applied using knapsack sprayer measured under field trials (reference value: 5940.6 +/-1.8 kg/hm'2)
[4] = test system: Pyricularia oryzae; assay: Antifungal activity against Magnaporthe oryzae in rice seedlings assessed as rice blast disease incidence at 15% with formulation dose of 400 g/667 m'2 applied using knapsack sprayer measured under field trials (reference value: 43.7 +/-5.4%)
[5] = test system: Pyricularia oryzae; assay: Antifungal activity against Magnaporthe oryzae in rice seedlings assessed as rice blast disease control efficacy treated 24 hr prior to fungal inoculation at 15% measured at 6 days post-inoculation under green house conditions
[6] = test system: Pyricularia oryzae; assay: Antifungal activity against Magnaporthe oryzae in rice seedlings assessed as rice blast disease control efficacy treated after fungal inoculation at 15% measured under green house conditions
[7] = test system: Pyricularia oryzae; assay: Antifungal activity against Magnaporthe oryzae in rice seedlings assessed as rice yield at 15% with formulation dose of 400 g/667 m'2 applied using knapsack sprayer measured under field trials (reference value: 5940.6 +/-1.8 kg/hm'2)
[8] = test system: Pyricularia oryzae; assay: Antifungal activity against Magnaporthe oryzae in rice seedlings assessed as rice blast disease incidence treated 24 hr prior to fungal inoculation at 15% measured at 6 days post-inoculation under green house conditions (reference value: 92.4 +/-5.6%)
[9] = test system: Pyricularia oryzae; assay: Antifungal activity against Magnaporthe oryzae in rice seedlings assessed as rice blast disease control efficacy at 15% with formulation dose of 400 g/667 m'2 applied using knapsack sprayer measured under field trials
[10] = test system: Pyricularia oryzae; assay: Antifungal activity against Magnaporthe oryzae in rice seedlings assessed as rice blast disease incidence treated after fungal inoculation at 15% measured under green house conditions (reference value: 92.4 +/-5.6%)

## O=C(O)CCNc1ccccc1 [PHENAMINO METHYL ACETIC ACID]
[1]
  Activity: 18.3%
[2]
  Efficacy: 68.3%
[3]
  Activity: 6480.5 Kg/hr.m2
[4]
  Activity: 18.3%
[5]
  Efficacy: 74.3%
[6]
  Efficacy: 73.6%
[7]
  Activity: 6275.7 Kg/hr.m2
[8]
  Activity: 62.5%
[9]
  Efficacy: 75.5%
[10]
  Activity: 60%
